According to ChEMBL document CHEMBL6134930, “Discovery of AB801, a Potent and Selective Inhibitor of AXL Receptor Tyrosine Kinase for Use in Cancer Therapy” (J Med Chem, 2025):
Active and inactive are the calls of the source. The calls are words filed in the database; no cut-off is given here.

Tests used:
[1] = biological target: T1, Tyrosine-protein kinase receptor UFO (Homo sapiens, UniProt P30530); assay: Inhibition of human AXL measured after 150 mins by ATP-competitive HTRF based biochemical assay
T1 sequence (P30530 whole entry): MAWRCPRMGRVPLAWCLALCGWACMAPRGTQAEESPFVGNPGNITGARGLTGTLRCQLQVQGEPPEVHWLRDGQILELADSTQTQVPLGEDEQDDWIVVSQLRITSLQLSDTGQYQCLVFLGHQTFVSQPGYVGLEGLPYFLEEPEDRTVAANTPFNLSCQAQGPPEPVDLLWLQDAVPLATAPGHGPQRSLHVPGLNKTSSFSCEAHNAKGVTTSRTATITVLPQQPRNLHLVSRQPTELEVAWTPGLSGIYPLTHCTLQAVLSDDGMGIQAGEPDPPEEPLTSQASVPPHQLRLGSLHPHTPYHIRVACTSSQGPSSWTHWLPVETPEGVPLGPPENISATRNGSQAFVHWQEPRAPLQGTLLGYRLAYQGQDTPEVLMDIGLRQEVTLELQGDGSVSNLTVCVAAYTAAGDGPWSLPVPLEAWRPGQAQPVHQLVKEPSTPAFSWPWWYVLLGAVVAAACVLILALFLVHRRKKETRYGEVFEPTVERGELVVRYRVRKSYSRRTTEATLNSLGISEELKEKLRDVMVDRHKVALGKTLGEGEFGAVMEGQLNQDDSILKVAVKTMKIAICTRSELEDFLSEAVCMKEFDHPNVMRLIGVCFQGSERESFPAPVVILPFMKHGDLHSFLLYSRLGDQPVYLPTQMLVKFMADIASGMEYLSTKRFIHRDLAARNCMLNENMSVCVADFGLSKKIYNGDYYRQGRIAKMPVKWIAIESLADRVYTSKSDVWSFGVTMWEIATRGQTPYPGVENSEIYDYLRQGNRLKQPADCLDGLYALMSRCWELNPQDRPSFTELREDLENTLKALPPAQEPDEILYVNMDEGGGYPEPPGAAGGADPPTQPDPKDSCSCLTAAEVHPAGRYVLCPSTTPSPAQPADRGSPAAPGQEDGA

[2] = Metabolic stability in rat hepatocytes assessed as intrinsic clearance measured per 10^6 cells; format: ADME, cell-based, Hepatocyte; details: read-out: CLH
[3] = AUCinf in Sprague-Dawley rat at 2 mg/kg, po measured up to 8 hrs by LC-MS/MS analysis; format: ADME, organism-based; details: in vivo
[4] = Efflux ratio in human Caco-2 cells; format: ADME, cell-based
[5] = Apparent permeability of compound from apical to basolateral side in human Caco-2 cells; format: ADME, cell-based; details: read-out: permeability
CYP2C9 = CYP2C9 (Homo sapiens, UniProt P11712); assay: Time dependent inhibition of CYP2C9 (unknown origin) at 30 uM measured after 30 mins relative to control; format: ADME; details: read-out: TDI
CYP2C19 = CYP2C19 (Homo sapiens, UniProt P33261); assay: Time dependent inhibition of CYP2C19 (unknown origin) at 30 uM measured after 30 mins relative to control; format: ADME; details: read-out: TDI
Cytochrome P450 2C8 = biological target: T2, Cytochrome P450 2C8 (Homo sapiens, UniProt P10632); assay: Inhibition of CYP2C8 (unknown origin) measured after 30 mins; format: ADME
T2 sequence (P10632 whole entry): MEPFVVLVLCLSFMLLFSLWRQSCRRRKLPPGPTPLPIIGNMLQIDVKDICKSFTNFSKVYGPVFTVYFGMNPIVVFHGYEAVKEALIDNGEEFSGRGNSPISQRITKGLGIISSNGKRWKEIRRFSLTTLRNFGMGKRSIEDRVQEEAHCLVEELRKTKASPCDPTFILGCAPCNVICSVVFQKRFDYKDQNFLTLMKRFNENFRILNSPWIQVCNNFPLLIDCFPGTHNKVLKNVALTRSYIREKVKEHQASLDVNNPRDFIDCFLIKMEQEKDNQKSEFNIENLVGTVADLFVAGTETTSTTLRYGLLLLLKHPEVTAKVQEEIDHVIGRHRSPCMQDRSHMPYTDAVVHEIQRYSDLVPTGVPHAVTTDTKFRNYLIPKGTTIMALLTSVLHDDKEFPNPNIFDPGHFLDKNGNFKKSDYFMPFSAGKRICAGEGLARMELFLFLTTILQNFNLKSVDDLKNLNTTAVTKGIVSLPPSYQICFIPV

Cytochrome P450 3A4 [6] = biological target: T3, Cytochrome P450 3A4 (Homo sapiens, UniProt P08684); assay: Inhibition of CYP3A4 (unknown origin) using midazolam as substrate measured after 30 mins; format: ADME
Cytochrome P450 3A4 [7] = biological target: T3, Cytochrome P450 3A4; assay: Inhibition of CYP3A4 (unknown origin) using testosterone as substrate measured after 30 mins; format: ADME
[8] = Selectivity ratio, ratio of Ki for MERTK (unknown origin) to Ki for AXL (unknown origin)
[9] = Selectivity ratio, ratio of Ki for TYRO3 (unknown origin) to Ki for AXL (unknown origin)
[10] = Selectivity ratio, ratio of Ki for DRAK1 (unknown origin) to Ki for AXL (unknown origin)
[11] = Selectivity ratio, ratio of Ki for HPK1 (unknown origin) to Ki for AXL (unknown origin)
[12] = Selectivity ratio, ratio of Ki for TRKA (unknown origin) to Ki for AXL (unknown origin)
786-0 [13] = assay: Anti-tumor activity against human 786-0 cells xenografted in mouse model assessed as tumor growth inhibition at 30 mg/kg, po once daily for 15 days; format: functional, organism-based; details: time 15.0 day
786-0 [14] = assay: Anti-tumor activity against human 786-0 cells xenografted in mouse model assessed as tumor growth inhibition in presence of sunitinib at 30 mg/kg, po once daily for 15 days; format: functional, organism-based; details: time 15.0 day
786-0 [15] = assay: Anti-tumor activity against human 786-0 cells xenografted in mouse model assessed as reduction in tumor volume in presence of sunitinib at 30 mg/kg, po once daily for 15 days; format: functional, organism-based; details: time 15.0 day
[16] = Toxicity in mouse xenografted with human 786-0 cells assessed as body weight in presence of sunitinib at 30 mg/kg, po once daily for 15 days; format: organism-based; details: in vivo, 360 h, time 15 day
[17] = Half life in human (healthy individuals) at 30 mg, single oral dose; format: ADME; details: in vivo
[18] = Half life in human (healthy individuals) at 90 mg, single oral dose; format: ADME; details: in vivo
[19] = Tmax in human (healthy individuals) at 10 mg, single oral dose; format: ADME; details: in vivo
[20] = Tmax in human (healthy individuals) at 270 mg, single oral dose; format: ADME; details: in vivo
[21] = Cmax in human (healthy individuals) at 10 mg, single oral dose measured uo to 120 hrs; format: ADME; details: in vivo
[22] = AUC (0 to 24 hrs) in human (healthy individuals) at 30 mg, single oral dose; format: ADME; details: in vivo
[23] = AUC (0 to 24 hrs) in human (healthy individuals) at 90 mg, single oral dose; format: ADME; details: in vivo
[24] = AUC (0 to 120 hrs) in human (healthy individuals) at 90 mg, single oral dose; format: ADME; details: in vivo

T3 sequence (P08684 whole entry): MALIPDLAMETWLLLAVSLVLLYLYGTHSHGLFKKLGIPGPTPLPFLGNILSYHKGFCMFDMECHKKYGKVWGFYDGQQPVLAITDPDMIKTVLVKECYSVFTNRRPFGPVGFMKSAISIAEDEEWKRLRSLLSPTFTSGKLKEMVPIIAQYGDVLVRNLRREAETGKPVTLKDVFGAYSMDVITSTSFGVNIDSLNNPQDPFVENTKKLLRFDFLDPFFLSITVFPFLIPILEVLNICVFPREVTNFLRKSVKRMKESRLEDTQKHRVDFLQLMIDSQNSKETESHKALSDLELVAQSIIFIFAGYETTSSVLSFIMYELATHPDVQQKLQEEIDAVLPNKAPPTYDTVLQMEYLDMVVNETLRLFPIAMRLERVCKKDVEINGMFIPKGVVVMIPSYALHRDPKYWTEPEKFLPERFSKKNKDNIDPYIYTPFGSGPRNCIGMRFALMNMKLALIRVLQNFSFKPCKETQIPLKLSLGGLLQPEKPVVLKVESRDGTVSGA
CYP2C19, sequence (P33261 whole entry): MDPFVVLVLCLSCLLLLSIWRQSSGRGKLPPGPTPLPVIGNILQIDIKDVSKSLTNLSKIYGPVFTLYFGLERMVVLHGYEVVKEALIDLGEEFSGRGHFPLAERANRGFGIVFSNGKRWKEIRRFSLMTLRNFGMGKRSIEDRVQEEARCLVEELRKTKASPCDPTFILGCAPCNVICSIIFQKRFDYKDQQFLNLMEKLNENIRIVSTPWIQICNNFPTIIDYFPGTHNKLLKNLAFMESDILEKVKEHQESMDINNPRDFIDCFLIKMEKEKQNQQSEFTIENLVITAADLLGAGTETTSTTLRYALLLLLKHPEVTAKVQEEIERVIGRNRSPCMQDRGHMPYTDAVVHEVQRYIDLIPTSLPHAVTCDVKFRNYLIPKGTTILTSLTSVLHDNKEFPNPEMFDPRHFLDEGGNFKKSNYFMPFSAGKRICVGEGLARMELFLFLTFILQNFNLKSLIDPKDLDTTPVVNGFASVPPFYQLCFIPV
CYP2C9, sequence (P11712 whole entry): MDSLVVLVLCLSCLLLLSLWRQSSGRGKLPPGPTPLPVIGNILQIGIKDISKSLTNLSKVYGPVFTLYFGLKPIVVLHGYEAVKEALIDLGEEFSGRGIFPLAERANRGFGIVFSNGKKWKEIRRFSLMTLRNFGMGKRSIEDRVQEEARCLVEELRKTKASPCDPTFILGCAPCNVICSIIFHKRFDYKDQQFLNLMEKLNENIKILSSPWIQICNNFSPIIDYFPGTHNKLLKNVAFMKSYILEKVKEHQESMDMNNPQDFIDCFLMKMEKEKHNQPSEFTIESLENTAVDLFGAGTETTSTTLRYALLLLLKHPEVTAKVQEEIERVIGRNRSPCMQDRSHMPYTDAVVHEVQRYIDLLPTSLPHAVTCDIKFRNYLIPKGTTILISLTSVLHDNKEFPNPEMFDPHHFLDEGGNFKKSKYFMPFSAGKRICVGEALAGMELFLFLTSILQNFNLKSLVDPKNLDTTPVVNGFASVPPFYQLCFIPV

Compound: Cc1cccnc1-c1ccc(-c2n[nH]c3ncc(-c4ccc5c(c4)CC[C@@H](N4C6COCC4C6)CC5)cc23)nc1
- IC50 [1]: 0.0018 µM
- hepatocyte CLint [2]: 20 µL/min/1e6 cells
- AUC(0-inf) [3]: 1800 ng·h/mL
- efflux ratio [4]: 1.9
- Papp A→B [5]: 1.7 ×10⁻⁶ cm/s
- inhibition at 0.5 h, 30 µM (CYP2C9): 10%
- inhibition at 0.5 h, 30 µM (CYP2C19): 4.1%
- IC50 (Cytochrome P450 2C8): 17 µM
- IC50 (Cytochrome P450 3A4 [6]): 17 µM
- IC50 (Cytochrome P450 3A4 [7]): 5.6 µM
- Ratio Ki [8]: 880
- Ratio Ki [9]: 1400
- Ratio Ki [10]: 47
- Ratio Ki [11]: 280
- Ratio Ki [12]: 330
- Activity (786-0 [13]): inactive
- Activity (786-0 [14]): Active
- Activity (786-0 [15]): Active
- Activity [16]: Non-toxic
- half-life [17]: 72 h
- half-life [18]: 54 h
- Tmax [19]: 6 h
- Tmax [20]: 8 h
- Cmax [21]: 3 ng/mL
- AUC(0-t) [22]: 189 ng·h/mL
- AUC(0-t) [23]: 707 ng·h/mL
- AUC(0-t) [24]: 2090 ng·h/mL
